Measurements reported in patent US20030187003A1, “Pharmaceutical compositions and method for the treatment of retroviral infections” (priority 2000, published 2003).

Assays:
[1] = test system: HIV-1 L1; assay: inhibition of virus-induced cytopathicity in MT-4 cells, HIV-1 clinical isolate L1; type: cell-based; conditions: Human immunodeficiency virus 1, MT4, 120 h, read-out: EC50 HIV-1 L1
[2] = test system: HIV-2 (ROD); assay: inhibition of virus-induced cytopathicity in MT-4 cells, HIV-2 (ROD); type: cell-based; conditions: Human immunodeficiency virus 2, MT4, 120 h, read-out: EC50 HIV-2 ROD
[3] = test system: SIV (MAC251); assay: inhibition of virus-induced cytopathicity in MT-4 cells, SIV (MAC251); type: cell-based, Simian immunodeficiency virus; conditions: Simian immunodeficiency virus, MT4, 120 h, read-out: EC50 SIV MAC251
[4] = test system: HIV-1 NL43/AMD3100; assay: microbe, parasite or virus in culture; type: cell-based
[5] = test system: HIV-1 L2; type: cell-based
[6] = test system: HIV-1 L4; type: cell-based
[7] = test system: HIV-1 (NDK, NL4.3 and L1), HIV-2 (ROD and EHO) and SIV (MAC251); assay: antiviral activity against several HIV and SIV strains; type: cell-based; conditions: range over HIV-1 (NDK, NL4.3 and L1)
[8] = test system: HIV-1 strains L2, L4 and L6; assay: antiviral activity against multi-drug resistant (MddNR) HIV-1 strains; type: cell-based; conditions: strains L2, L4 and L6 versus parental strain L1
[9] = test system: HIV-1; assay: combined inhibitory effect on HIV-1-induced cytopathic effect, isobologram method; type: cell-based; conditions: combination with nevirapine, MT-4 cells, FIG. 4
Procedure: The antiviral effect of compound H was tested in combination with the nucleoside reverse transcriptase inhibitor zidovudine, the non-nucleoside reverse transcriptase inhibitor nevirapine and the protease inhibitor nelfinavir.
The combined inhibitory effect on HIV-1-induced cytopathic effect was evaluated by the isobologram method, as previously described by Elion et al. in J. Biol. Chem. (1954) 208:477-488 and by Baba et al. in Antimicrob. Agents Chemother. (1984) 25:515-517.
EC50, as defined herein before, was used for calculating the fractional inhibitory concentration (hereinafter referred as FIC). When the minimum FIC index corresponding to the FIC of combined compounds (e.g., FICx+FICy) is equal to 1.0, the combination is said to be additive; when it is beween 1.0 and 0.5, the combination is by definition said to be subsynergistic, and when it is <0.5, the combination is by definition said to be synergistic. When the minimum FIC index is between 1.0 and 2.0, the combination is said to be subantagonistic and, when it is >2.0, the combination is defined as antagonistic.

[10] = test system: HIV-1(IIIB); assay: time of addition experiment, viral p24 antigen production; type: cell-based; conditions: MT-4 cells, m.o.i. 0.5, 250 μM, p24 at 31 hours post-infection
Procedure: A time of addition experiment was carried out in order to investigate which step of the replicative cycle was inhibited by compound H. Briefly, this experiment determines how long the addition of an anti-HIV compound can be postponed before losing its antiviral activity in the viral replication cycle. MT-4 cells were infected with HIV-1(IIIB) at a multiplicity of infection (m.o.i.) of 0.5 in order to synchronize all steps of viral replication and the various antiviral test compounds were added at different times (ranging from 0 up to 26 hours) after infection. Viral p24 antigen production was determined 31 hours post-infection (using HIV-1 p24 Core Profile ELISA, Du Pont, Dreieich, Germany) and is expressed as the log10 of the p24 Ag content in pg/ml. Reference compounds with a known mode of action were included in this experiment. Dextran sulfate, a polyanion, interferes with binding of the virus to the cell. The nucleoside analogue AZT inhibits the reverse transcription process. Ritonavir is a proteolytic cleavage inhibitor. […]. Compound H was added at 250 μM. In FIG. 1 showing the results of this experiment, the following symbols were used: (●) for control, (▴) for dextran sulfate (20 μM), (▪) for AZT (1.9 μM), (▪) for ritonavir (2.8 μM) and (*) for compound H (250 μM).

[11] = target: T1, Recombinant HIV-1 RT (HXB2) (Human immunodeficiency virus type 1 group M subtype B, UniProt P04585); assay: inhibition of HIV-1 reverse transcriptase enzymatic activity; type: biochemical
T1 construct: Recombinant HIV-1 RT (HXB2) was obtained as described by Jonckheere et al; made in house
Description: Poly(rC).oligo(dG) and poly (rA).oligo(dT) were used as template-primers, and 8-[^3H]-dGTP and [^3H]-dTTP were used as radiolabelled substrates.

[12] = target: T2, integrase (Human immunodeficiency virus type 1 group M subtype B, UniProt P04585); assay: kinetic cleavage assay, conversion of initial stable complex into cleaved product; type: biochemical, HIV-1; conditions: in the presence of 50 μM compound, added after preincubation with dextran sulfate
T2 construct: encoding HIV-1 IN (strain HTLV III); made in house; host or cells: E. coli PC1 (BL21(DE3)(pLysS) ΔendA::TcR)
Procedure: When dextran sulfate with a molecular weight of 5,000 was added at a final concentration of 0.3 μM, further binding of integrase to the oligonucleotide was blocked. At several periods of time, 5 μl aliquots were taken and the reaction was stopped using 5 μl formamide loading buffer (having the same composition as above). The rate constant for the conversion of ISC into the cleaved product can be calculated using the formula: A-Be^−kt. In order to examine the inhibitory effect of compound H on 3′-processing, we repeated the same experiment in the presence of 50 μM compound (added after preincubation, together with dextran sulfate) and compared the rate constants: In the absence of compound H, it was calculated at 0.152±0.038 min^−1 in its presence at 0.147±0.025 min^−1. This quite similar value rules out that compound H directly affects the catalysis of 3′-processing.

[13] = target: T3, recombinant His-tagged HIV-1 integrase (Human immunodeficiency virus type 1 group M subtype B, UniProt P04585); assay: HIV-1 integrase 3′-processing assay, oligonucleotide-based
Procedure: (§1) Reactions were started by the addition of the enzyme. Inhibitors were incubated shortly with the reaction components before the addition of integrase. Reactions were allowed to proceed at 37° C. for 7 minutes and stopped by the addition of formamide loading buffer (95% formamide, 30 mM ethylenediamine tetraacetic acid, 0.1% xylene cyanol, 0.1% bromophenol blue, 0.1% sodium dilaurylsulfate SDS). In the overall integration assay, this reaction was allowed to proceed for 60 minutes before the addition of a formamide dye.

[14] = target: T3, recombinant His-tagged HIV-1 integrase; assay: HIV-1 integrase strand transfer assay, oligonucleotide-based
[15] = target: T3, recombinant His-tagged HIV-1 integrase; assay: HIV-1 integrase overall integration assay, oligonucleotide-based
Procedure: as §1

O=[N+]([O-])c1ccc(C2c3c(O)nc(S)nc3Oc3nc(S)nc(O)c32)cc1 [compound H, 5-(4-nitrophenyl)-2,8-dithiol-4,6-dihydroxy-5H-pyrano[2,3-d:6,5-d′]dipyrimidine]
EC50 [1]: 3.7 ± 1.8 µM | EC50 [2]: 30 ± 6.2 µM | EC50 [3]: 5.5 ± 0.9 µM | EC50 ([4]; Human immunodeficiency virus 1, NL43): 19.1 ± 1.4 µM | fold increase in EC50 ([4]; NL43/AMD3100 versus wild type strain NL4.3): 1.3 | activity against HIV-1 strain resistant to bicyclam ([4]; in words): active | EC50 ([5]; Human immunodeficiency virus 1): 6 ± 2.3 µM | fold increase in EC50 ([5]; L2 versus wild type strain L1): 1.6 | EC50 ([6]; Human immunodeficiency virus 1): 11.7 ± 0.7 µM | fold increase in EC50 ([6]; L4 versus wild type strain L1): 3.2 | EC50 [7]: 5.5 to 30 µM | reduction in inhibitory potency [8]: ≤ 3 fold | added values FICnevirapine+FICV-165 [9]: below 0.5 | time the addition can be postponed after virus infection [10]: 6 h | IC50 ([11]; IC50 Poly(A).oligo(dT), template-primer poly(A).oligo(dT)): 24.6 ± 7.2 µM | IC50 ([11]; IC50 poly(C).oligo(dG), template-primer poly(C).oligo(dG)): 4.8 ± 2.2 µM | rate constant for the conversion of ISC into the cleaved product [12]: 0.147 ± 0.025 min⁻¹ | IC50 [13]: 0.9 ± 0.4 µM | inhibition of the 3-processing reaction ([13]; in words): inhibited | IC50 [14]: 16.1 ± 10.7 µM | effect on the DNA strand transfer reaction ([14]; in words): strong inhibitory effect | IC50 [15]: 0.3 ± 0.2 µM | inhibition of the overall integration reaction ([15]; in words): inhibited
